“And” between values parts separate entries of the source, which are not always exact repeats. Equal entries are not always repeated.
Tests used:
[1] = Cholesterol, TG, NEFA and glycerol in serum and liver; type: in vivo, mouse; design: liver NEFA, Mean 2 (group mean) / Plasma VLDL cholesterol in db/db mice (VLDL-C) / Plasma VLDL cholesterol in db/db mice, group mean / TC in liver_CT2KO (total cholesterol in the liver of CRTC2-KO) / TC in liver_WT (total cholesterol in the liver) / TC in liver_WT, mean / TC in liver_WT, Mean Diff. VEH vs. drug / TC in liver_CRTC2KO, mean / TC in liver_CRTC2KO, Mean Diff. VEH vs. drug: unit not given here; settings: for HF, plasma TG / HF, plasma TG, group mean / HF, plasma TG (Fast, TG): HF mice; for HF, plasma TG, group mean: n=6; for HF, plasma TG (Fast, TG): fasted
Experimental: Serum total cholesterol (TC), LDL cholesterol (LDL-C), and HDL cholesterol (HDL-C) levels were detected using commercial kits (Beihua, China), and serum VLDL protein was determined by ELISA (Jiancheng, China).
The plasma TG and NEFA levels were determined using corresponding kits from Beihua (China) and WAKO (Japan), respectively. The TG levels of liver and WAT were tested by TG kit (Applygene, China). The NEFA in the liver and WAT were extracted by chloroform–methanol and then subjected to NEFA assay (WAKO).

[2] = Pharmacokinetic studies; type: in vivo, mouse; settings: ICR mice; for half-life: ICR
Experimental: Male ICR mice (18–20 g, n = 3 in each group) were randomly assigned to treatment groups. After 12-h of fasting, baseline blood was collected into a tube containing ethylenediaminetetraacetic acid (EDTA). Animals were then treated orally with compound A57 or APC (p.o.: 20 mg/kg, in DMSO/0.5% HPMC 5/95, v/v) and intravenous injected the selected compounds (i.v.: 2 mg/kg, in DMSO/EtOH/PEG300/NaCl 5/5/40/50, v/v/v/v). Subsequently, blood samples per mouse were collected at 0.25, 0.5, 1, 2, 4, 8, 24 h for p.o.-treated groups and 0.05, 0.25, 0.75, 2, 4, 6, 8, 24 h for i.v.-treated groups. All samples were centrifuged at 12,000 rpm for 3 min, and the plasma was harvested. Aliquots of plasma samples were stored at −80 °C until analysis. The selected compounds' serum concentrations were determined by liquid chromatography/tandem mass spectrometry (LC–MS–MS). Pharmacokinetic parameters were determined from the selected compounds' serum concentrations by noncompartmental methods using WinNonLin professional version 4.1 (Pharsight Corp., Mountain View, CA).

[3] = HF mice plasma, APC 20 mg/kg, N=5
[4] = HF mice plasma, APC 20 mg/kg, individual animals
[5] = APC 10 mg/kg, individual animals
[6] = APC 20 mg/kg, individual animals
[7] = db/db mice, plasma, individual animals
[8] = male, mouse, plasma, iv, i.v. 2 mg/kg
[9] = male, mouse, plasma, po, p.o. 20 mg/kg

CC(C)=CCc1cc(C=CC(=O)O)cc(CC=C(C)C)c1O [APC, 3,5-diprenyl-4-hydroxycinnamic acid]
Plasma LDLC, group mean [1, 3]: 35.83
Plasma TC, group mean [1, 3]: 149.8
Plasma cholesterol fraction: HDL-C [1, 4]: 115.823 mg/dl and 123.85 mg/dl and 106.649 mg/dl (2×) and 111.236 mg/dl
Plasma cholesterol fraction: TC [1, 4]: 171.677 mg/dL and 165.819 mg/dL and 163.116 mg/dL and 116.704 mg/dL and 131.574 mg/dL
Plasma cholesterol fraction: lDL-C [1, 4]: 30.997 mg/dL and 43.001 mg/dL and 39.18 mg/dL and 41.345 mg/dL and 24.6089 mg/dL
plasma VLDL-C in HF mice [1, 4]: 7.201 mM and 6.888 mM and 6.935 mM and 9.593 mM and 6.573 mM
HF, plasma TG [1, 5]: 206.957 mg/dL and 266.745 mg/dL and 324.233 mg/dL and 312.736 mg/dL and 213.856 mg/dL and 276.893 mg/dL
HF, plasma TG, group mean ([1]; APC 10 mg/kg): 266.9
HF, plasma TG [1, 6]: 191.58 mg/dL and 265.587 mg/dL and 200.059 mg/dL and 301.238 mg/dL and 218.455 mg/dL and 257.547 mg/dL
HF, plasma TG, group mean ([1]; APC 20 mg/kg): 239.1
HF, plasma TG (Fast, TG) [1, 5]: 2.336 mM and 3.011 mM and 3.66 mM and 3.53 mM and 2.414 mM and 3.1252 mM
HF, plasma TG (Fast, TG) [1, 6]: 2.1623 mM and 2.9976 mM and 2.258 mM and 3.4 mM and 2.466 mM and 2.907 mM
plasma NEFA ([1]; WT lean mice ip APC, individual mice): 0.3625 mM and 0.9375 mM (2×) and 0.4375 mM (2×) and 0.3875 mM and 0.3375 mM
Plasma HDL cholesterol (HDLC) in db/db mice [1, 7]: 102.090 mg/dL and 118.865 mg/dL and 74.315 mg/dL and 130.914 mg/dL and 101.419 mg/dL
Plasma LDL cholesterol (LDLC) in db/db mice [1, 7]: 136.268 mg/dL and 110.602 mg/dL and 104.635 mg/dL and 153.302 mg/dL and 128.968 mg/dL
Plasma total cholesterol (TC) in db/db mice [1, 7]: 321.58 mg/dL and 345.006 mg/dL and 255.56 mg/dL and 362.043 mg/dL and 310.931 mg/dL
plasma TG in db/db mice [1, 7]: 326.962 mg/dL and 300.088 mg/dL and 273.215 mg/dL and 309.046 mg/dL and 418.497 mg/dL
Plasma total cholesterol (TLC) in db/db mice, group mean ([1]; db/db mice, plasma, mean, N 5): 319 mg/dL
Plasma VLDL cholesterol in db/db mice, group mean ([1]; db/db mice, plasma, mean, sample size 5): 14.3
TC in liver_CRTC2KO, Mean Diff. VEH vs. drug ([1]; liver, CRTC2-KO mice, VEH minus drug): 4.338
TG in liver_CT2KO, Mean Diff. vs. VEH ([1]; liver, CRTC2-KO mice, drug minus VEH): 1.019 mg/g protein
TC in liver_CRTC2KO, mean ([1]; liver, CRTC2-KO mice, group mean (Mean 2), N=6): 47.01
TG in liver_CT2KO, mean ([1]; liver, CRTC2-KO mice, group mean, N=6): 16.67 mg/g protein
TG in liver_CT2KO ([1]; liver, CRTC2-KO mice, individual animals, Supp.fig.5c): 24.3792 mg/g protein and 12.893 mg/g protein and 18.4652 mg/g protein and 10.1068 mg/g protein and 21.2872 mg/g protein and 12.8898 mg/g protein
TC in liver_CT2KO (total cholesterol in the liver of CRTC2-KO) ([1]; liver, CRTC2-KO mice, individual animals, Supp.fig.5d): 58.4768 and 29.5309 and 45.7311 and 42.1461 and 61.1694 and 45.0332
TC in liver_WT, Mean Diff. VEH vs. drug ([1]; liver, WT mice, VEH minus drug): 14.77
TG in liver_WT, Mean Diff. vs. VEH ([1]; liver, WT mice, drug minus VEH): -10.82 mg/g protein
TC in liver_WT, mean ([1]; liver, WT mice, group mean (Mean 2), N=6): 45.59
TG in liver_WT, mean ([1]; liver, WT mice, group mean, N=6): 9.137 mg/g protein
TG in liver_WT ([1]; liver, WT mice, individual animals, Supp.fig.5c): 10.5445 mg/g protein and 8.1654 mg/g protein and 11.0077 mg/g protein and 10.5773 mg/g protein and 6.8582 mg/g protein and 7.67 mg/g protein
TC in liver_WT (total cholesterol in the liver) ([1]; liver, WT mice, individual animals, Supp.fig.5d): 40.0962 and 49.3508 and 44.4273 and 45.043 and 48.2093 and 46.4302
plasma and liver cholesterol, liver TG in Crtc2-KO mice ([1]; oral 20 mg/kg, 3 weeks): little effect
Fpo ([2]; p.o. 20 mg/kg vs i.v. 2 mg/kg): 14.4%
T1/2 ([2]; p.o. 20 mg/kg, 20 mg/kg): 3.29 h
half-life ([2]; male, mouse, plasma, iv, 2 mg/kg, i.v. 2 mg/kg): 5.89 h
half-life ([2]; male, mouse, plasma, po, 20 mg/kg, p.o. 20 mg/kg): 2.11 h
AUC(0-t) [2, 8]: 428 ng·h/mL
MRT [2, 8]: 2.46 h
clearance [2, 8]: 78 mL/min/kg
AUC(0-t) [2, 9]: 616 ng·h/mL
Cmax [2, 9]: 510 ng/mL
MRT [2, 9]: 4.33 h
Tmax [2, 9]: 0.25 h
